Data reported in patent US6576620B2, “Method of identifying partial adenosine A1 receptor agonists” (CV Therapeutics, Inc., priority 1999, dated 2003).
Read-outs that look alike come from different tables or passages of the source.

Columns and labels:
[1] = test system: guinea pig isolated heart; assay: A-V nodal conduction time / S-H interval, isolated perfused heart; settings: for EC50: Cavia porcellus; for S-H interval Efficacy: Table 5, 2759 = CVT-2759
Experimental: This method evaluates the potencies of compounds to cause coronary vasodilation (A2A AdoR response) and to prolong A-V nodal conduction time (A1 AdoR response).
Rats and guinea pigs, of either sex weighing from 230 to 260 grams and 300 to 350 grams, respectively, were used in this study. Animals were anesthetized by peritoneal injection of a cocktail containing ketamine and xylazine (ketamine 100 mg, xylazine 20 mg/ml). The chest was opened and the heart quickly removed. The heart was briefly rinse in ice-cold Krebs-Henseleit solution (see below), and the aorta cannulated. The heart was then perfused at a flow rate of 10 ml/min with modified Krebs-Henseleit (K-H) solution containing NaCl 117.9, KCl 4.5, CaCl2 2.5, MgSO4 1.18, KH2PO4 1.18, pyruvate 2.0 mmol. The K-H solution (pH 7.4) was gassed continuously with 95% O2 and 5% CO2 and warmed to 35±0.50° C. The heart was electrically paced at a fixed cycle length of […] (250 beats/min) using a bipolar electrode place on the left atrium. The electrical stimuli were generated by a Grass stimulator (Model S48, W. Warwick, R.I.) and delivered through a Stimuli Isolation Unit (Model SIU5, Astro-Med, Inc., NY) as square-wave pulses of 3-msec in duration and amplitude of at least twice the threshold intensity.
A1 adenosine receptor-mediated depression of A-V nodal conduction time (negative dromotropic effect) was measured. Atrial and ventricular surface electrograms in rats and His bundle electrogram in guinea pigs, were recorded during constant atrial pacing.
The effects of compounds on coronary conductance (A2A effect) and atrioventricular conduction time or stimulus-to-His-bundle (S-H) interval (A1 effect) was then determined. Hearts were instrumented for continuous recording of coronary perfusion pressure (A2A response) and atrioventricular (A-V) conduction time or S-H interval (A1 response). In each experiment, concentration-response relationship of compounds to increase coronary conductance and to prolong A-V conduction time or S-H interval was determined. After control measurements of CPP and A-V conduction time or S-H interval were made, progressive higher concentrations of the compound studied was administered until maximal coronary vasodilation and A-V nodal conduction time or S-H interval prolongation were achieved.
Guinea pigs (Hartley) of either sex weighing 300-350 g were anaesthetized with methoxyflurane and killed by decapitation. The chest was cut open and the heart was removed quickly and rinsed in ice-cold modified Krebs-Henseleit (K-H) solution. The contents of the modified K-H solution were (in mM): NaCl 117.9, KCl 4.8, CaCl2 2.5, MgSO2 1.18, KH2PO4 1.2, Na2 EDTA 0.5, ascorbic acid 0.14, dextrose 5.5, pyruvic acid (sodium salt) 2.0, and NaHCO3 25. The K-H solution was continuously gassed with 95% oxygen and 5% CO2, and the pH was adjusted to a value of 7.4. To perfuse the heart by the Langendorff method, the transected aorta was slid onto a glass cannula and secured by a ligature. Retrograde perfusion of the aorta was initiated immediately at a constant flow of 10 ml min-′ with modified K-H solution warmed to 36.0±0.5° C. A side port in the cannula was used to connect the perfusion line to a Gould pressure transducer for measurement of coronary perfusion pressure. Coronary perfusion pressure was continuously recorded on a strip chart (Gould RS3400, Cleveland, Ohio) throughout each experiment. Coronary conductance (in ml min^−1 mmHg^−1) was calculated as the ratio of coronary flow (10 ml min^−1) to perfusion pressure (mm Hg). To facilitate the exit of fluid from the left ventricle, the leaflets of the mitral valve were trimmed with fine spring-handled scissors. When appropriate, hearts were paced at a constant rate using external electrodes. […]

[2] = test system: guinea pig isolated heart; assay: Monophasic action potential duration, isolated heart; settings: bolus (100 μl) of 1 mM adenosine
Experimental: Signals were considered adequate if they were stable for at least 5-10 min and the amplitudes exceeded 10 mV. The data were digitized at 2 kHz by a DT-2801A digitizing board (Data Translation, Marlboro, Mass.) and were saved for analysis using the Snapshot data acquisition program (Snapshot Storage Scope, HEM Data Corp., Southfield, Mich.). The duration of the atrial and ventricular monophasic action potentials was measured from onset of depolarization to either 50 or 90% of repolarization.

[3] = test system: guinea pig isolated heart; settings: previous study (12); cited from earlier work
[4] = test system: Adenosine A1 receptor; assay: A1-agonist stimulated [35S]GTPγS binding to G proteins; assay type: biochemical; settings: for GTPγS: Table 1, compounds of Example 2, normalized to the full agonist CPA; for GTPγS (% of CPA): Table 5
Experimental: At the end of the incubation, each suspension was filtered and the retained radioactivity determined as described above.

[5] = biological target: T1, Adenosine A1 receptor (Cavia porcellus, UniProt P47745); assay: Affinity binding (Ki) of Tables 4 and 5
T1 construct: from tissue; host or cells: guinea pig forebrain membranes
T1 sequence (P47745 1-326): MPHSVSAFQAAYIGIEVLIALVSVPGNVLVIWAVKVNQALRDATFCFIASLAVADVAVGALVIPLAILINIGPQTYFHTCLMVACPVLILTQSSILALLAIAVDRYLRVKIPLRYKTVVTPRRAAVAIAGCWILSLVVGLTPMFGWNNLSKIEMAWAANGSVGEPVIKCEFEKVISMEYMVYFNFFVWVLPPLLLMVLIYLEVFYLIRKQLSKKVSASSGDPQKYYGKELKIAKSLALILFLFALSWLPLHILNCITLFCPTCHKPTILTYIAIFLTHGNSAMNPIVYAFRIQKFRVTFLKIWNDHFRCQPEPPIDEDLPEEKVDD
Experimental: The binding affinity of a compound is evaluated in a competitive binding assay.

[6] = Table 4, A-V nodal conduction time, read-out: EC50 A-V NCT
[7] = Table 5, S-H interval, read-out: EC50

Row | Structure (SMILES) | GTPγS [4] | GTPγS (% of CPA) [4] | Ki ([5]; Table 4, read-out: Ki low) | Ki ([5]; Table 5, read-out: Ki) | adenosine concentration causing second-degree AV block ([1]; absence of Compound 6 of Example 2) | duration of atrial monophasic action potential at 90% of repolarization [2] | maximal increase of coronary conductance [3] | EC50 [1, 6] | S-H interval Efficacy [1] | EC50 [1, 7]
1 | Nc1ncnc2c1ncn2[C@@H]1O[C@H](CO)[C@@H](O)[C@H]1O [Adenosine] |  |  |  |  | 6 µM | 22 ± 5 ms | 0.15±0.02 ml min^−1 mmHg^−1 |  |  | 
2 | O=C(NC1CCCC1)OC[C@H]1O[C@@H](n2cnc3c(N[C@@H]4CCOC4)nc(Cl)nc32)[C@H](O)[C@@H]1O [Compound 69 of Example 2, [(5-{6-[((3R)oxolan-3-yl)amino]-2-chloropurin-9-yl}(3S,2R,4R,5R)-3,4-dihydroxyoxolan-2-yl)methoxy]-N-cyclopentylcarboxamide] | 50% | 69 % of CPA |  | > 1460 nM |  |  |  |  | Partial (= 2759) | 
3 | CNC(=S)OC[C@H]1O[C@@H](n2cnc3c(N[C@@H]4CCOC4)nc(Cl)nc32)[C@H](O)[C@@H]1O [Compound 81 of Example 2] |  | 84 % of CPA | 500 nM | 1110 nM |  |  |  | 600 nM | Partial | 530 nM

More lines, in order of falling Ki ([5]; Table 5, read-out: Ki), values ahead:

Row | GTPγS [4] | GTPγS (% of CPA) [4] | Ki ([5]; Table 4, read-out: Ki low) | Ki ([5]; Table 5, read-out: Ki) | Structure (SMILES) | adenosine concentration causing second-degree AV block ([1]; absence of Compound 6 of Example 2) | duration of atrial monophasic action potential at 90% of repolarization [2] | maximal increase of coronary conductance [3] | EC50 [1, 6] | S-H interval Efficacy [1] | EC50 [1, 7]
4 | 89% | 89 % of CPA | 900 nM | 895 nM | CCCNC(=S)OC[C@H]1O[C@@H](n2cnc3c(N[C@@H]4CCOC4)ncnc32)[C@H](O)[C@@H]1O [Compound 49 of Example 2, 2-{6-[((3R)oxolan-3-yl)amino]purin-9-yl}(4S,2R,3R,5R)-5-{[(propylamino)thioxomethoxy]methyl}oxolane-3,4-diol] |  |  |  | 1400 nM | Partial | 
5 |  | 77 % of CPA |  | 443 nM | CCCNC(=S)OC[C@H]1O[C@@H](n2cnc3c(N[C@@H]4CCOC4)nc(Cl)nc32)[C@H](O)[C@@H]1O [Compound 83 of Example 2, 2-{6-[((3R)oxolan-3-yl)amino]-2-chloropurin-9-yl}(4S,2R,3R,5R)-5-{[(propylamino)thioxomethoxy]methyl}oxolane-3,4-diol] |  |  |  |  | Partial | 610 nM
